# According to patent US4438107A, “Aminoglycosides and use thereof” (Kowa Company, Ltd., priority 1981, dated 1984):
# Like-named read-outs stand apart in the source and are kept apart here.
# Legend:
# [1] = test system: Pseudomonas aeruginosa GN315; test: antibacterial spectrum, minimal inhibitory concentration; assay type: cell-based
# Streptococcus faecalis = test: as above; assay type: cell-based; details: Enterococcus faecalis
# Bacillus cereus = test: as above; assay type: cell-based
# [2] = test system: Pseudomonas aeruginosa No. 99; test: as above; assay type: cell-based
# [3] = test system: Pseudomonas aeruginosa TI-13; test: as above; assay type: cell-based
# From the text: | Resistance mechanism: ^a APH(3')I,
# Escherichia coli R-82 = test: as above; assay type: cell-based; details: R82, resistance mechanism APH(3')II
# Bacillus anthracis = test: microbe, parasite or virus in culture; assay type: cell-based; details: read-out: Minimal inhibitory concentration
# [4] = test system: Pseudomonas aeruginosa A3; test: antibacterial spectrum, minimal inhibitory concentration; assay type: cell-based
# [5] = test system: Escherichia coli NIHJ JC-2; test: as above; assay type: cell-based
# [6] = test system: Pseudomonas aeruginosa No. 12; test: as above; assay type: cell-based
# [7] = test system: Pseudomonas aeruginosa TK-157; test: as above; assay type: cell-based
# [8] = test system: Escherichia coli JR88/W677; test: as above; assay type: cell-based; details: resistance mechanism AAC(3)I
# [9] = test system: Proteus inconstans GN1554; test: as above; assay type: cell-based; details: Providencia alcalifaciens
# Escherichia coli R-101 = test: as above; assay type: cell-based
# Escherichia coli R-81 = test: as above; details: R81, read-out: Minimal inhibitory concentration
# Proteus vulgaris OX-19 = test: as above; assay type: cell-based
# Serratia marcescens = test: as above; assay type: cell-based; details: read-out: Minimal inhibitory concentration
# [10] = test system: Staphylococcus aureus 209P JC-1; test: as above; assay type: cell-based
# [11] = test system: Escherichia coli K-12 ML1410; test: as above; assay type: cell-based; details: K12ML1410
# [12] = test system: Klebsiella pneumoniae PCI 602; test: as above; assay type: cell-based
# Escherichia coli R-176 = test: as above; assay type: cell-based; details: R176, resistance mechanism AAC(3)II
# [13] = test system: Pseudomonas aeruginosa K-11; test: as above; assay type: cell-based
# [14] = test system: Bacillus subtilis ATCC 6633; test: as above; assay type: cell-based; details: ATCC6633
# [15] = Pseudomonas aeruginosa, GN315, read-out: Minimal inhibitory concentration
# [16] = Pseudomonas aeruginosa, NO.99, read-out: Minimal inhibitory concentration
# [17] = Pseudomonas aeruginosa, TI13, read-out: Minimal inhibitory concentration
# [18] = Pseudomonas aeruginosa A3, read-out: Minimal inhibitory concentration
# [19] = Escherichia coli, NIHJJC2, read-out: Minimal inhibitory concentration
# [20] = TK157, Pseudomonas aeruginosa TK-157, resistance mechanism APH(3')II, read-out: Minimal inhibitory concentration
# [21] = GN1554, read-out: Minimal inhibitory concentration
# [22] = Escherichia coli, R101, read-out: Minimal inhibitory concentration
# [23] = Proteus vulgaris, OX19, read-out: Minimal inhibitory concentration
# [24] = PCI602, Klebsiella pneumoniae PCI 602, read-out: Minimal inhibitory concentration
# [25] = Pseudomonas aeruginosa, K11, read-out: Minimal inhibitory concentration
# [26] = Pseudomonas aeruginosa, A3, read-out: Minimal inhibitory concentration
# [27] = Pseudomonas aeruginosa, TK157, read-out: Minimal inhibitory concentration
# [28] = Pseudomonas aeruginosa GN315, resistance mechanism AAC(6')IV, read-out: Minimal inhibitory concentration
# [29] = Pseudomonas aeruginosa No. 99, resistance mechanism AAC(3)I, read-out: Minimal inhibitory concentration
# [30] = TI13, Pseudomonas aeruginosa TI-13, resistance mechanism APH(3')I, read-out: Minimal inhibitory concentration
# [31] = NIHJJC2, Escherichia coli NIHJ JC-2, read-out: Minimal inhibitory concentration
# [32] = OX19, Proteus vulgaris OX-19, read-out: Minimal inhibitory concentration
# [33] = K11, Pseudomonas aeruginosa K-11, read-out: Minimal inhibitory concentration
# [34] = Proteus inconstans GN1554, resistance mechanism AAC(2'), read-out: Minimal inhibitory concentration
# [35] = R101, Escherichia coli R-101, resistance mechanism AAD(2"), read-out: Minimal inhibitory concentration
# [36] = Klebsiella pneumoniae, PCI602, read-out: Minimal inhibitory concentration
Compound,MIC (Streptococcus faecalis) [µg/mL],MIC (Bacillus cereus) [µg/mL],MIC (Escherichia coli R-82) [µg/mL],MIC (Bacillus anthracis) [µg/mL],MIC [6] [µg/mL],"MIC [7, 20] [µg/mL]",MIC [8] [µg/mL],"MIC [9, 21] [µg/mL]",MIC (Escherichia coli R-101; [22]) [µg/mL],MIC (Escherichia coli R-81) [µg/mL],MIC (Serratia marcescens) [µg/mL],MIC [10] [µg/mL],MIC [11] [µg/mL],"MIC [12, 24] [µg/mL]",MIC (Escherichia coli R-176) [µg/mL],MIC [14] [µg/mL],"MIC [4, 26] [µg/mL]","MIC [2, 29] [µg/mL]",MIC (Proteus vulgaris OX-19; [32]) [µg/mL],"MIC [13, 33] [µg/mL]",further results
"CC(N)C1CCC(N)C(OC2C(N)CC(OCC(O)CN)C(N(C)C(=O)CN)C2O)O1 (stereo not drawn) [A, 5-O-(3-amino-2-hydroxypropyl)-5-de-O-methyl-KA-6606 I]",50,0.78,3.13,≤ 0.1,0.39,1.56,6.25,6.25,3.13,3.13,1.56,0.39,3.13,1.56,6.25,0.2,,,,,"MIC [1, 15]: 3.13 µg/mL; MIC [2, 16]: 6.25 µg/mL; MIC [3, 17]: 3.13 µg/mL; MIC [4, 18]: 1.56 µg/mL; MIC [5, 19]: 3.13 µg/mL; MIC (Proteus vulgaris OX-19; [23]): 3.13 µg/mL; MIC [13, 25]: 3.13 µg/mL"
"CC(N)C1CCC(N)C(OC2C(N)CC(OCC(O)CCN)C(N(C)C(=O)CN)C2O)O1 (stereo not drawn) [B, 5-O-(4-amino-2-hydroxybutyl)-5-de-O-methyl-KA-6606 I]",50,1.56,3.13,≤ 0.1,0.39,,3.13,6.25,3.13,3.13,1.56,0.39,3.13,1.56,6.25,≤ 0.1,3.13,,,,"MIC [1, 15]: 6.25 µg/mL; MIC [2, 16]: 6.25 µg/mL; MIC [3, 17]: 3.13 µg/mL; MIC [5, 19]: 3.13 µg/mL; MIC [7, 27]: 3.13 µg/mL; MIC (Proteus vulgaris OX-19; [23]): 3.13 µg/mL; MIC [13, 25]: 6.25 µg/mL"
"CC(N)C1CCC(N)C(OC2C(N)CC(OCC(O)CO)C(N(C)C(=O)CN)C2O)O1 (stereo not drawn) [C, 5-de-O-methyl-5-O-(2,3-dihydroxypropyl)-KA-6606 I]",100,3.13,6.25,≤ 0.1,1.56,12.5,6.25,6.25,6.25,6.25,3.13,0.39,6.25,0.78,6.25,0.2,6.25,25,3.13,12.5,"MIC [1, 28]: 12.5 µg/mL; MIC [3, 30]: 12.5 µg/mL; MIC [5, 31]: 3.13 µg/mL"
"CC(N)C1CCC(N)C(OC2C(N)CC(O[C@@H]3O[C@H](CO)[C@@H](O)[C@H](O)[C@H]3O)C(N(C)C(=O)CN)C2O)O1 (stereo partly drawn) [D, 5-de-O-methyl-5-O-(β-D-glucopyranosyl)-KA-6606 I]",> 100,6.25,12.5,0.2,0.78,6.25,3.13,,,12.5,3.13,0.78,12.5,,3.13,0.39,12.5,25,6.25,25,"MIC [1, 28]: 25 µg/mL; MIC [3, 17]: 12.5 µg/mL; MIC [5, 31]: 6.25 µg/mL; MIC [9, 34]: 25 µg/mL; MIC (Escherichia coli R-101; [35]): 6.25 µg/mL; MIC [12, 36]: 3.13 µg/mL"
"CC(N)C1CCC(N)C(OC2C(N)CC(O[C@H]3O[C@H](CO)[C@@H](O)[C@H](N)[C@H]3O)C(N(C)C(=O)CN)C2O)O1 (stereo partly drawn) [E, 5-O-(3-amino-3-deoxy-α-D-glucopyranosyl)-5-de-O-methyl-KA-6606 I]",50,0.78,6.25,0.2,0.39,,1.56,6.25,,6.25,1.56,0.39,6.25,,6.25,0.2,6.25,12.5,3.13,3.13,"MIC [1, 15]: 6.25 µg/mL; MIC [3, 30]: 3.13 µg/mL; MIC [5, 31]: 3.13 µg/mL; MIC [7, 27]: 1.56 µg/mL; MIC (Escherichia coli R-101; [35]): 3.13 µg/mL; MIC [12, 36]: 1.56 µg/mL"
"COC1CC(N)C(OC2OC(C(C)N)CCC2N)C(O)C1N(C)C(=O)CN (stereo not drawn) [KA-6606 I, reference compound]",25,1.56,3.13,0.2,0.39,6.25,> 100,,3.13,3.13,3.13,0.39,3.13,1.56,3.13,0.2,,> 100,1.56,12.5,"MIC [1, 28]: 12.5 µg/mL; MIC [3, 30]: 6.25 µg/mL; MIC [4, 18]: 6.25 µg/mL; MIC [5, 19]: 3.13 µg/mL; MIC [9, 34]: 6.25 µg/mL"
